From ChEMBL document CHEMBL1949544, “Proteasome inhibitors from Neoboutonia melleri” (J Nat Prod, 2012) come the findings set out here.

Experiment [1] deals with DLD-1. In words: Inhibition of proteasome activity in human DLD1 cells expressing 4-ubiquitin luciferase reporter protein assessed increase of luciferase signal at 10 uM after 7 hrs relative to control. (In general: Reporter assays use an easily measured gene product as a stand-in for the process of interest.)
The subject of experiment [2] is DLD-1. In words: Inhibition of proteasome activity in human DLD1 cells expressing 4-ubiquitin luciferase reporter protein assessed increase of luciferase signal at 5 uM after 7 hrs relative to control.
The test system of experiment [3] is DLD-1. In words: Inhibition of proteasome activity in human DLD1 cells expressing 4-ubiquitin luciferase reporter protein assessed increase of luciferase signal at 1 uM after 7 hrs relative to control.
In experiment [4] the test system is DLD-1. In words: Inhibition of proteasome activity in human DLD1 cells expressing 4-ubiquitin luciferase reporter protein assessed increase of luciferase signal at 0.5 uM after 7 hrs relative to control.

The structures appear in SMILES notation.

Consider `C=C(C(=O)[C@H](O)[C@@H](C)[C@H]1[C@@H](OC(C)=O)C[C@@]2(C)[C@@H]3CC[C@H]4[C@H](C)C(=O)C=C[C@@]45C[C@@]35CC[C@]12C)[C@@H](C)CO`, for which the fold change (FC) amounted to 2.9 in experiment [1], 28 in experiment [2], 45 in experiment [3] and 1.4 in experiment [4].
On to `C=C(C(=O)[C@H](OC(C)=O)[C@@H](C)[C@H]1[C@@H](OC(C)=O)C[C@@]2(C)[C@@H]3CC[C@H]4[C@H](C)C(=O)C=C[C@@]45C[C@@]35CC[C@]12C)C(C)C`, for which the fold change (FC) is 19 in experiment [1], 74 in experiment [2] and 7.2 in experiment [3].
`C=C(C(=O)[C@H](OC(C)=O)[C@@H](C)[C@H]1[C@@H](OC(C)=O)C[C@@]2(C)[C@@H]3CC[C@H]4[C@H](C)C(=O)[C@H](O)[C@H]5C[C@]54C3=CC[C@]12C)[C@@H](C)CO`: the fold change (FC) was determined as 15 in experiment [1], 1.9 in experiment [2] and 1.2 in experiment [3].
With `C=C(C(=O)[C@H](O)[C@@H](C)[C@H]1[C@@H](OC(C)=O)C[C@@]2(C)[C@@H]3CC[C@H]4[C@H](C)C(=O)C[C@H](O)[C@@]45C[C@@]35CC[C@]12C)[C@@H](C)CO`, the fold change (FC) in experiment [1] worked out at 74; in experiment [2], 11; in experiment [3], 1.6; in experiment [4], 1.3.
Turning to `C=C(C(=O)[C@H](OC(C)=O)[C@@H](C)[C@H]1[C@@H](OC(C)=O)C[C@@]2(C)[C@@H]3CC[C@H]4[C@H](C)C(=O)C=C[C@@]45C[C@@]35CC[C@]12CO)[C@@H](C)CO`, the fold change (FC) was 1.1 in experiment [1], 12 in experiment [2] and 1.2 in experiment [3].
For `C=C(C(=O)[C@H](OC(C)=O)[C@@H](C)[C@H]1[C@@H](OC(C)=O)C[C@@]2(C)[C@@H]3CC[C@H]4[C@H](C)C(=O)C=C[C@@]45C[C@@]35CC[C@]12C)[C@@H](C)CO`, the fold change (FC) in experiment [1] was determined as 4.4; in experiment [2], 37; in experiment [3], 48; in experiment [4], 2.1.
Take `C=C(C(=O)C1(O)O[C@H]2C[C@@]3(C)[C@@H]4CC[C@H]5[C@H](C)C(=O)C=C[C@@]56C[C@@]46CC[C@]3(C)[C@H]2[C@@H]1C)[C@@H](C)CO` (some centres not stated): the figures for the fold change (FC) in experiment [1], in experiment [2] and in experiment [3] were 2.6, 1 and 0.9, respectively.
In the same order, the values of `CC(=O)O[C@H]1C[C@@]2(C)[C@@H]3CC[C@H]4[C@H](C)C(=O)C=C[C@@]45C[C@@]35CC[C@]2(C)[C@H]1[C@H](C)[C@@H](OC(C)=O)C(=O)C=C(C)C` are 44, 34 and 1.1.
Take `CC(C)=CC(=O)C[C@@H](C)[C@H]1CC[C@@]2(C)[C@@H]3CC[C@H]4[C@](C)(C(=O)O[C@@H]5O[C@@H](C)[C@H](O)[C@@H](O)[C@H]5O)[C@@H](O)CC[C@@]45C[C@@]35CC[C@]12C`: the fold change (FC) in experiment [1] worked out at 1.1; in experiment [2] it was 1; in experiment [3], 1.
As to `CC(=O)O[C@H]1C[C@@]2(C)[C@@H]3CC[C@H]4[C@H](C)C(=O)C=C[C@@]45C[C@@]35CC[C@]2(C)[C@H]1[C@H](C)C=O`, the fold change (FC) was found to be 3 in experiment [1], 1.3 in experiment [2] and 1.1 in experiment [3].
In the same order, the values of `C=C1C(C)CO[C@@]12C[C@@H](C)[C@H]1[C@H](C[C@@]3(C)[C@@H]4CC[C@H]5[C@](C)(C(=O)O)[C@@H](O)CC[C@@]56C[C@@]46CC[C@]13C)O2` (some centres not stated) are 1.3, 1.3 and 1.2.
For the compound `C=C(C(=O)[C@H](OC(C)=O)[C@@H](C)[C@H]1[C@@H](OC(C)=O)C[C@@]2(C)[C@@H]3C[C@@H](O)[C@H]4[C@H](C)C(=O)C=C[C@@]45C[C@@]35CC[C@]12C)[C@@H](C)CO`, the fold change (FC) in experiment [2] is 31; in experiment [3], 5.1; in experiment [4], 1.2.
In the same order, the values of `C=C(C(=O)[C@H](OC(C)=O)[C@@H](C)[C@H]1[C@@H](OC(C)=O)C[C@@]2(C)[C@@H]3CC[C@H]4[C@H](C)C(=O)C=C[C@@]45C[C@@]35CC[C@]12C)[C@@H](C)COC(C)=O` are 48, 12 and 1.1.
Take `C=C(C(=O)[C@H](O)[C@@H](C)[C@H]1[C@@H](OC(C)=O)C[C@@]2(C)[C@@H]3C[C@@H](O)[C@H]4[C@H](C)C(=O)C=C[C@@]45C[C@@]35CC[C@]12C)[C@@H](C)CO`: the results for the fold change (FC) in experiment [2] and in experiment [3] were 35 and 1.1, respectively.
`C=C(C(=O)[C@H](OC(C)=O)[C@@H](C)[C@H]1[C@@H](OC(C)=O)C[C@@]2(C)[C@@H]3CC[C@H]4[C@H](C)C(=O)C=C[C@@]45C[C@@]35CC[C@]12C)[C@@H](C)C=O`: the fold change (FC) in experiment [1] was found to be 31; in experiment [2], 70; in experiment [3] it was 1.
For the compound `C=C(C(=O)[C@H](O)[C@@H](C)[C@H]1[C@@H](OC(C)=O)C[C@@]2(C)[C@@H]3CC[C@H]4[C@H](C)C(=O)CC[C@@]45C[C@@]35CC[C@]12C)[C@@H](C)CO`, the fold change (FC) worked out at 77 in experiment [1], 10 in experiment [2] and 1.2 in experiment [3].
As for `C=C(C(=O)[C@H](O)[C@@H](C)[C@H]1[C@@H](OC(C)=O)C[C@@]2(C)[C@@H]3CC[C@H]4[C@](C)(C(=O)O)[C@@H](O)CC[C@@]45C[C@@]35CC[C@]12C)C(C)C`, the fold change (FC) was 1.8 in experiment [1], 1.3 in experiment [2] and 1.2 in experiment [3].
In the same order, the values of `C=C(C(=O)[C@H](OC(C)=O)[C@@H](C)[C@H]1[C@@H](OC(C)=O)C[C@@]2(C)[C@@H]3CC[C@H]4[C@H](C)C(=O)CC[C@@]45C[C@@]35CC[C@]12C)[C@@H](C)CO` are 48, 45 and 0.9.
In the same order, the values of `C=C(C(=O)[C@H](O)[C@@H](C)[C@H]1[C@@H](OC(C)=O)C[C@@]2(C)[C@@H]3CC[C@H]4[C@H](C)C(=O)C=C[C@@]45C[C@@]35CC[C@]12C)C(C)C` are 20, 65 and 2.4.
In the same order, the values of `C=C(C(=O)C[C@@H](C)[C@H]1CC[C@@]2(C)[C@@H]3CC[C@H]4[C@](C)(C(=O)O[C@@H]5O[C@@H](C)[C@H](O)[C@@H](O)[C@H]5O)[C@@H](O)CC[C@@]45C[C@@]35CC[C@]12C)C(C)C` are 1.1, 1 and 1.1.
With `C=C(C(=O)C[C@@H](C)[C@H]1[C@@H](OC(C)=O)C[C@@]2(C)[C@@H]3CC[C@H]4[C@](C)(C(=O)O)[C@@H](O)CC[C@@]45C[C@@]35CC[C@]12C)C(C)CO` (some centres not stated), the fold change (FC) was found to be 2.8 in experiment [1], 1.3 in experiment [2] and 1 in experiment [3].
In the same order, the values of `C=C(C(=O)[C@H](OC(C)=O)[C@@H](C)[C@H]1[C@@H](OC(C)=O)C[C@@]2(C)[C@@H]3[C@H]4O[C@H]4[C@H]4[C@H](C)C(=O)C=C[C@@]45C[C@@]35CC[C@]12C)[C@@H](C)CO` are 15, 72 and 2.8.
Turning to `C=C(C(=O)[C@H](OC(C)=O)[C@@H](C)[C@H]1[C@@H](OC(C)=O)C[C@@]2(C)[C@@H]3CC[C@H]4[C@H](C)C(=O)C=C[C@]45C[C@]35CC[C@]12C)[C@@H](C)CO`, the fold change (FC) is 24 in experiment [1], 84 in experiment [2], 2 in experiment [3] and 1.4 in experiment [4].
In the same order, the values of `C=C(C(=O)[C@H](OC(C)=O)[C@@H](C)[C@H]1[C@@H](OC(C)=O)C[C@@]2(C)[C@@H]3CC[C@H]4[C@H](C)C(=O)C=C[C@@]45C[C@@]35CC[C@]12C)[C@H](C)CO` are 60, 71, 1.5 and 1.
On to `C=C(C(=O)[C@H](O)[C@@H](C)[C@H]1[C@@H](OC(C)=O)C[C@@]2(C)[C@@H]3CC[C@H]4[C@H](C)C(=O)C=C[C@]45C[C@]35CC[C@]12C)[C@@H](C)CO`, for which the figures for the fold change (FC) in experiment [2], in experiment [3] and in experiment [4] were 9.1, 0.9 and 0.9, respectively.
With `CC(=O)O[C@H]1C[C@@]2(C)[C@@H]3CC[C@H]4[C@H](C)C(=O)C=C[C@@]45C[C@@]35CC[C@]2(C)[C@H]1[C@H](C)[C@@H](O)C(=O)C=C(C)C`, the fold change (FC) in experiment [1] was 53; in experiment [2], 5.2; in experiment [3], 1.1.
